From PMC9085577, “Discovery of a Potent and Orally Active Dual GPBAR1/CysLT1R Modulator for the Treatment of Metabolic Fatty Liver Disease” (Frontiers in Pharmacology, 2022)

System: liver transcriptome
Test: AmpliSeq liver transcriptome of HFD-F mice
Assay type: in vivo
Excerpt: C57BL/6J male mice were fed a high fat diet (HFD) containing 59 KJ% fat plus 1% cholesterol, w/o sugar (ssniff ® EF R/M acc. D12330 mod. 22,7 ME/kg) and fructose (HFD-F) in drinking water (42 g/L), or normal chow diet for 61 days. Food intake was estimated as the difference of weight between the offered and the remnant amount of food at 3-days intervals. The food was provided as pressed pellets and the residual spillage was not considered. After 7 days, HFD-F mice were randomized to receive HFD-F alone or in combination with compound 2 (30 mg/kg/day) by gavage until the end of the experiment. Doses of each agent were chosen according to previously published data. Mice were housed under controlled temperature (22°C) and photoperiods (12:12-h light/dark cycle), allowed unrestricted access to standard mouse chow and tap water. The experimental protocol was approved by the Animal Care and Use Committee of the University of Perugia and by the Italian Minister of Health and Istituto Superiore di Sanità (Italy) and was in agreement with the European guidelines for use of experimental animals (permission n. 583/2017-PR). The general health of the animals was monitored daily by the Veterinarian in the animal facility. At the day of sacrifice, fed mice were deeply anesthetized with a mixture of tiletamine hypochloride and zolazepam hypochloride/xylazine at a dose of 50/5 mg/kg and sacrificed before 12 a.m.
High-quality RNA was extracted from mice livers, using the Direct-zol™ RNA MiniPrep w/Zymo-Spin™ IIC Columns (Zymo Research, Irvine, CA) according to the manufacturer’s instructions. RNA quality and quantity were assessed with the Qubit® RNA HS Assay Kit and a Qubit 3.0 fluorometer (Invitrogen, Carlsbad, CA) followed by agarose gel electrophoresis. Libraries were generated using the Ion AmpliSeq™ Transcriptome Mouse Gene Expression Core Panel and Chef-Ready Kit (Comprehensive evaluation of AmpliSeq transcriptome, a whole transcriptome RNA sequencing methodology) (Thermo Fisher Scientific, Waltham, MA). Briefly, 10 ng of RNA was reverse transcribed with SuperScript™ Vilo™ cDNA Synthesis Kit (Thermo Fisher Scientific, Waltham, MA) before library preparation on the Ion Chef™ instrument (Thermo Fisher Scientific, Waltham, MA). The resulting cDNA was amplified to prepare barcoded libraries using the Ion Code™ PCR Plate, and the Ion AmpliSeq™ Transcriptome Mouse Gene Expression Core Panel (Thermo Fisher Scientific, Waltham, MA), Chef-Ready Kit, according to the manufacturer’s instructions. Barcoded libraries were combined to a final concentration of 100 p.m., and used to prepare Template-Positive Ion Sphere™ (Thermo Fisher Scientific, Waltham, MA) Particles to load on Ion 540™ Chips, using the Ion 540™ Kit-Chef (Thermo Fisher Scientific, Waltham, MA). Sequencing was performed on an Ion S5™ Sequencer with Torrent Suite™ Software v6 (Thermo Fisher Scientific, Waltham, MA). The analyses were performed with a range of fold <−2 and >+2 and a p value <0.05, using Transcriptome Analysis Console Software (version 4.0.1), certified for AmpliSeq analysis (Thermo-Fisher). The transcriptomic data have been deposited as dataset on Mendeley data repository (reference number linking to the repository: Fiorucci, Stefano; Biagioli, Michele; Marchianò, Silvia; Di Giorgio, Cristina (2021), “Discovery of potent dual GPBAR1/CysLT1R modulator for the treatment of metabolic fatty liver disease,” Mendeley Data, V1, doi: 10.17632/6dnrk9fc72.1).

[1] = HFD-F mice, 30 mg/kg/day by gavage
[2] = in comparison to untreated mice

liver expression of Cyp7a1 (HFD-F mice, 30 mg/kg/day by gavage, 30 mg/kg/day): potently increased | Cyp1a2 transcript Avg (log2) (liver, HFD + compound 2): 11.93 log2 | Cyp2a5 transcript Avg (log2) (liver, HFD + compound 2): 10.52 log2 | Cyp7a1 transcript Avg (log2) (liver, HFD + compound 2): 9.39 log2
SMILES: O=C(O)c1cccc(-c2ccc(OCc3ccc4ccccc4n3)cc2)c1 [Compound 2, 4'-(quinolin-2-ylmethoxy)-[1,1′-biphenyl]-3-carboxylic acid]
liver expression of Alox5 [1]: downregulated | liver expression of Col1α1 [1]: reversed | liver expression of Elov5, Mogat1, fabp2, Cd36, Me1, and Cidea [1]: reduced significantly | liver expression of FXR and its target genes Shp and Bsep [1]: no effect | liver expression of Fasn [1]: reduced significantly | liver expression of Fgf21 [1]: decreased | liver expression of Srepb1f [1]: no effect | liver expression of αSma [1]: reversed | number of liver genes modulated compared to HFD-F alone (fold change <−2 or >2, p value < 0.05): 154 | liver expression of Pparα [2]: increased | liver expression of Pparγ [2]: increased | 1810011O10Rik transcript Avg (log2) (liver, HFD + compound 2): 5.22 log2 | 2310001K24Rik transcript Avg (log2) (liver, HFD + compound 2): 2.22 log2 | 2310039H08Rik transcript Avg (log2) (liver, HFD + compound 2): 3.92 log2 | 4833423E24Rik transcript Avg (log2) (liver, HFD + compound 2): 1.1 log2 | 6430573F11Rik transcript Avg (log2) (liver, HFD + compound 2): 1.17 log2 | AW549542 transcript Avg (log2) (liver, HFD + compound 2): 6.06 log2 | Abcb1a transcript Avg (log2) (liver, HFD + compound 2): 2.24 log2 | Acod1 transcript Avg (log2) (liver, HFD + compound 2): 0.24 log2 | Acot3 transcript Avg (log2) (liver, HFD + compound 2): 1.85 log2 | Adam8 transcript Avg (log2) (liver, HFD + compound 2): 0.63 log2 | Adam11 transcript Avg (log2) (liver, HFD + compound 2): 7.79 log2 | Anxa2 transcript Avg (log2) (liver, HFD + compound 2): 4.37 log2 | Apcs transcript Avg (log2) (liver, HFD + compound 2): 6.13 log2 | Arntl transcript Avg (log2) (liver, HFD + compound 2): 1.77 log2 | Arsg transcript Avg (log2) (liver, HFD + compound 2): 4.36 log2 | Atp1a3 transcript Avg (log2) (liver, HFD + compound 2): 0.63 log2 | Aurka transcript Avg (log2) (liver, HFD + compound 2): 0.66 log2 | Avpr1a transcript Avg (log2) (liver, HFD + compound 2): 3.76 log2 | Bcat1 transcript Avg (log2) (liver, HFD + compound 2): 0 log2 | C920009B18Rik transcript Avg (log2) (liver, HFD + compound 2): 0.43 log2 | Cabyr transcript Avg (log2) (liver, HFD + compound 2): 3.88 log2 | Capn11 transcript Avg (log2) (liver, HFD + compound 2): 2.07 log2 | Ccl2 transcript Avg (log2) (liver, HFD + compound 2): 2.2 log2 | Ccl3 transcript Avg (log2) (liver, HFD + compound 2): 1.68 log2 | Ccl4 transcript Avg (log2) (liver, HFD + compound 2): 0.13 log2 | Ccl7 transcript Avg (log2) (liver, HFD + compound 2): 0.8 log2 | Ccl9 transcript Avg (log2) (liver, HFD + compound 2): 5.17 log2 | Cd9 transcript Avg (log2) (liver, HFD + compound 2): 5.07 log2 | Cd14 transcript Avg (log2) (liver, HFD + compound 2): 2.99 log2 | Cd36 transcript Avg (log2) (liver, HFD + compound 2): 4.05 log2 | Cd63 transcript Avg (log2) (liver, HFD + compound 2): 2.97 log2 | Cdk1 transcript Avg (log2) (liver, HFD + compound 2): 1.66 log2 | Cdkl2 transcript Avg (log2) (liver, HFD + compound 2): 1.24 log2 | Cdkn1a transcript Avg (log2) (liver, HFD + compound 2): 1.4 log2 | Cdkn3 transcript Avg (log2) (liver, HFD + compound 2): 0.2 log2 | Ces2b transcript Avg (log2) (liver, HFD + compound 2): 4.12 log2 | Cetn4 transcript Avg (log2) (liver, HFD + compound 2): 1.14 log2 | Chka transcript Avg (log2) (liver, HFD + compound 2): 4.93 log2 | Chrna4 transcript Avg (log2) (liver, HFD + compound 2): 2.32 log2 | Cidea transcript Avg (log2) (liver, HFD + compound 2): 0.78 log2 | Cidec transcript Avg (log2) (liver, HFD + compound 2): 5.15 log2 | Cirbp transcript Avg (log2) (liver, HFD + compound 2): 6.69 log2 | Ckap2 transcript Avg (log2) (liver, HFD + compound 2): 0.6 log2 | Clec4e transcript Avg (log2) (liver, HFD + compound 2): 0.33 log2 | Clec4d transcript Avg (log2) (liver, HFD + compound 2): 0.27 log2 | Col27a1 transcript Avg (log2) (liver, HFD + compound 2): 6.19 log2 | Csf3 transcript Avg (log2) (liver, HFD + compound 2): 0.06 log2 | Cxcl2 transcript Avg (log2) (liver, HFD + compound 2): 1 log2 | Cyp17a1 transcript Avg (log2) (liver, HFD + compound 2): 4.11 log2 | D17H6S56E-5 transcript Avg (log2) (liver, HFD + compound 2): 1.96 log2 | Dbp transcript Avg (log2) (liver, HFD + compound 2): 7.05 log2 | Defb1 transcript Avg (log2) (liver, HFD + compound 2): 1.19 log2 | Derl2 transcript Avg (log2) (liver, HFD + compound 2): 4.75 log2 | Dhrs9 transcript Avg (log2) (liver, HFD + compound 2): 1.65 log2 | Dtx4 transcript Avg (log2) (liver, HFD + compound 2): 2.62 log2 | Dusp8 transcript Avg (log2) (liver, HFD + compound 2): 1.5 log2 | Egr1 transcript Avg (log2) (liver, HFD + compound 2): 3.52 log2 | Ell transcript Avg (log2) (liver, HFD + compound 2): 5.75 log2 | Elovl3 transcript Avg (log2) (liver, HFD + compound 2): 8.94 log2 | Elovl5 transcript Avg (log2) (liver, HFD + compound 2): 9.72 log2 | Ephb2 transcript Avg (log2) (liver, HFD + compound 2): 0.78 log2 | Epm2aip1 transcript Avg (log2) (liver, HFD + compound 2): 2.63 log2 | Fam57a transcript Avg (log2) (liver, HFD + compound 2): 2.02 log2 | Fgf21 transcript Avg (log2) (liver, HFD + compound 2): 2.1 log2 | Fxyd2 transcript Avg (log2) (liver, HFD + compound 2): 0.72 log2
